Results published in ChEMBL document CHEMBL6127041, “Dual-target inhibitors based on acetylcholinesterase: Novel agents for Alzheimer's disease” (Eur J Med Chem, 2024).

Experiments:
[1] = Permeability of compound at pH 7.4 by PAMPA assay; assay type: ADME; conditions: read-out: permeability
Cholinesterase [2] = target: Cholinesterase (Homo sapiens, UniProt P06276); experiment: Inhibition of BChE (unknown origin) incubated for 10 mins by Ellman's method
Acetylcholinesterase [3] = target: T1, Acetylcholinesterase (Electrophorus electricus, UniProt O42275); experiment: Inhibition of electric eel AChE using acetylthiocholine iodide as substrate preincubated for 5 mins followed by substrate addition by DTNB reagent based Ellman's method
[4] = target: T2, Amine oxidase [flavin-containing] A (Homo sapiens, UniProt P21397); experiment: Inhibition of MAO-A (unknown origin)
T2 sequence (P21397 whole entry): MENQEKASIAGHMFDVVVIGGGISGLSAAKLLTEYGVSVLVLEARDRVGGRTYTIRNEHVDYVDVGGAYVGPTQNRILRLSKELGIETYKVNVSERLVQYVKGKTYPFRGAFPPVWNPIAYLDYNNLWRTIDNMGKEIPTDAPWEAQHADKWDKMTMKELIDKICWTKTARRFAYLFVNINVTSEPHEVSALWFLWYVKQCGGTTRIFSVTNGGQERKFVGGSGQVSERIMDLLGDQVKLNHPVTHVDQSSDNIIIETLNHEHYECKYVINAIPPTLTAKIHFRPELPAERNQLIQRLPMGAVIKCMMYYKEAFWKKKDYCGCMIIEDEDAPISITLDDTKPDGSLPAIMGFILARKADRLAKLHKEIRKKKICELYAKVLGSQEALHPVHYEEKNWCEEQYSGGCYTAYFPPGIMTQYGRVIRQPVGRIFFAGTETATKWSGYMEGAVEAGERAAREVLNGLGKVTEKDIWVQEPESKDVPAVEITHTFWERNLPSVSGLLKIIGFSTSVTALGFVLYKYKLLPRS

[5] = target: T3, Amine oxidase [flavin-containing] B (Homo sapiens, UniProt P27338); experiment: Inhibition of MAO-B (unknown origin)
T3 sequence (P27338 whole entry): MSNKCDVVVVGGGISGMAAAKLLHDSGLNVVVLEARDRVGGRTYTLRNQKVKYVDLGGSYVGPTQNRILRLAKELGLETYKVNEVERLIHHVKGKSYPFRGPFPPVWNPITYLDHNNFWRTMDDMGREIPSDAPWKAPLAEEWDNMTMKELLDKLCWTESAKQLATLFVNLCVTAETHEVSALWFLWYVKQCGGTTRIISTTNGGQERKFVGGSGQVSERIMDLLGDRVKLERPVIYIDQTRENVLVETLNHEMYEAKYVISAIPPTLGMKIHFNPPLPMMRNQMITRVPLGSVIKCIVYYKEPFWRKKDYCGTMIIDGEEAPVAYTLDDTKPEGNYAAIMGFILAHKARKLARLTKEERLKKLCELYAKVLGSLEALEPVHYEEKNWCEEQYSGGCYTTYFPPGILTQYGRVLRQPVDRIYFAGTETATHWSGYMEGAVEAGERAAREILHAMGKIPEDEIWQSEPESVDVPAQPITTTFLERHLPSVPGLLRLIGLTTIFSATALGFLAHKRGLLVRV

Acetylcholinesterase [6] = target: T4, Acetylcholinesterase (Homo sapiens, UniProt P22303); experiment: Inhibition of AChE (unknown origin) by Ellman's method
Acetylcholinesterase [7] = target: T4, Acetylcholinesterase; experiment: Inhibition of AChE (unknown origin) incubated for 1 hr by Ellman's method
Beta-secretase 1 [8] = target: T5, Beta-secretase 1 (Homo sapiens, UniProt P56817); experiment: Inhibition of BACE-1 (unknown origin)
Acetylcholinesterase [9] = target: T1, Acetylcholinesterase; experiment: Inhibition of electric eel AChE using acetylthiocholine iodide as substrate preincubated with compounds for 20 mins followed by substrate addition and measured after 5 mins by Ellman's method
Beta-secretase 1 [10] = target: T5, Beta-secretase 1; experiment: Inhibition of BACE-1 (unknown origin) measured after 2 hrs by FRET assay
Acetylcholinesterase [11] = target: T4, Acetylcholinesterase; experiment: Inhibition of human recombinant AChE using acetylthiocholine iodide as substratE incubated for 20 mins by DTNB reagent based Ellman's method
Beta-secretase 1 [12] = target: T5, Beta-secretase 1; experiment: Inhibition of human BACE-1 by FRET assay
Acetylcholinesterase [13] = target: T4, Acetylcholinesterase
Description: Inhibition of human AChE by Ellman's method

Cholinesterase [14] = target: Cholinesterase (Equus caballus, UniProt P81908); experiment: Inhibition of equine serum BuChE using butyrylthiocholine iodide as substrate preincubated for 5 mins followed by substrate addition by DTNB reagent based Ellman's method
Acetylcholinesterase [15] = target: T4, Acetylcholinesterase; experiment: Inhibition of AChE (unknown origin) using acetylthiocholine iodide as substrate measured after 15 mins by Ellman's method
Acetylcholinesterase [16] = target: T4, Acetylcholinesterase; experiment: Inhibition of AChE (unknown origin)
Acetylcholinesterase [17] = target: T4, Acetylcholinesterase; experiment: Inhibition of AChE (unknown origin) at 40 uM by Ellman's method relative to control
Acetylcholinesterase [18] = target: T4, Acetylcholinesterase; remark: listed apart in the source
[19] = target: Glycogen synthase kinase-3 beta (Homo sapiens, UniProt P49841); experiment: Inhibition of human recombinant GSK3beta by ADP-Glo Kinase Assay
[20] = target: T3, Amine oxidase [flavin-containing] B; experiment: Inhibition of human MAO-B using Tyramine hydrochloride as substrate preincubated for 30 mins followed by substrate addition and measured for 1 hr by fluorometric method
Acetylcholinesterase [21] = target: T4, Acetylcholinesterase; experiment: Inhibition of human AChE using acetylthiocholine iodide as substrate preincubated for 15 mins followed by substrate addition and measured for 30 mins by Ellman's method

T1 sequence (O42275 whole entry): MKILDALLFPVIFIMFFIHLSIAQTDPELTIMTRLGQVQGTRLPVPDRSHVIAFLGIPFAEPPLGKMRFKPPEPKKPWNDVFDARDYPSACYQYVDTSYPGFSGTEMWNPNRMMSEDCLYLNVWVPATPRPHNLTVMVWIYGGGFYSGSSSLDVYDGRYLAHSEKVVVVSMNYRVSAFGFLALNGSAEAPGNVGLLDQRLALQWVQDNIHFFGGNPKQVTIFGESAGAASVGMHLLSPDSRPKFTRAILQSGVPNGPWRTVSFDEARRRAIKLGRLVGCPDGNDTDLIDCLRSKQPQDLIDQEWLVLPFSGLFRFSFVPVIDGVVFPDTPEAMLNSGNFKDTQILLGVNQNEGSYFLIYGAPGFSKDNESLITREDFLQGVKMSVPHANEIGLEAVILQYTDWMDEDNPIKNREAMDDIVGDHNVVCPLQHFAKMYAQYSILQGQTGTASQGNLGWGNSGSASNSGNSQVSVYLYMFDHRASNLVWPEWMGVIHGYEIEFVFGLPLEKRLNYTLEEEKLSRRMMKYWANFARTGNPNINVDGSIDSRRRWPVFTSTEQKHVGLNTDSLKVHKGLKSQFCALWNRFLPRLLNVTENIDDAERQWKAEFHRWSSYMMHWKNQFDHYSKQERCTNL
Sequence of Cholinesterase (Homo sapiens, UniProt P06276) (P06276 whole entry): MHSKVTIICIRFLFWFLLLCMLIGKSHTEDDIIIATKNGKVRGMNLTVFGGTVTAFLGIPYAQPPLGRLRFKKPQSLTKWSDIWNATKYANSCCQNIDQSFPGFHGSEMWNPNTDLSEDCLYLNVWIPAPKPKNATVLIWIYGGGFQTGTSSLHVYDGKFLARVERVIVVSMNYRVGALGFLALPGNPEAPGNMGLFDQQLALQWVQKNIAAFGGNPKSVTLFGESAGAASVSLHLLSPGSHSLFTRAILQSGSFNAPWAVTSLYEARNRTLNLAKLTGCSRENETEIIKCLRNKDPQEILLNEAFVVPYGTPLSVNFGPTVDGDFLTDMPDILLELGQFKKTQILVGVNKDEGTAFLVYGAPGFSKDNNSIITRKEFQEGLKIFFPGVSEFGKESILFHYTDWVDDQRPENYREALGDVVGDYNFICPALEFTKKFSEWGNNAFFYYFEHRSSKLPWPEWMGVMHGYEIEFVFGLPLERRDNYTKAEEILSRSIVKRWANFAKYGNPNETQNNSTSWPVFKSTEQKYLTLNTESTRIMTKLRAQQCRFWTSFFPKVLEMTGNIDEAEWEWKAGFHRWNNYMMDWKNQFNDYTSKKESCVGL
T5 sequence (P56817 whole entry): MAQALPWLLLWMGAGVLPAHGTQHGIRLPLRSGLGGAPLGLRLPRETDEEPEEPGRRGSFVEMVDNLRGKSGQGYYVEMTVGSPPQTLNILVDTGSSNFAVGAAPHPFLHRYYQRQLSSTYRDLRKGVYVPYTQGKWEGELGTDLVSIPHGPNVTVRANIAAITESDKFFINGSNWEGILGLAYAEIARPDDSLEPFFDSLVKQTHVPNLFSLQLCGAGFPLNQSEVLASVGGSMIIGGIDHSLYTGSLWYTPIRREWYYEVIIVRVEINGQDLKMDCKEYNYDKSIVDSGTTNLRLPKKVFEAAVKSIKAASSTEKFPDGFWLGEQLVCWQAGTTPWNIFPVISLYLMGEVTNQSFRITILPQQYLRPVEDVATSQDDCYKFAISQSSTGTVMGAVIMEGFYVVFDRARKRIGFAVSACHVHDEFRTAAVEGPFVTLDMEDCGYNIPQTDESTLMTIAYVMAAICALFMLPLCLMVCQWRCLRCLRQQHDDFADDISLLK
T4 sequence (P22303 whole entry): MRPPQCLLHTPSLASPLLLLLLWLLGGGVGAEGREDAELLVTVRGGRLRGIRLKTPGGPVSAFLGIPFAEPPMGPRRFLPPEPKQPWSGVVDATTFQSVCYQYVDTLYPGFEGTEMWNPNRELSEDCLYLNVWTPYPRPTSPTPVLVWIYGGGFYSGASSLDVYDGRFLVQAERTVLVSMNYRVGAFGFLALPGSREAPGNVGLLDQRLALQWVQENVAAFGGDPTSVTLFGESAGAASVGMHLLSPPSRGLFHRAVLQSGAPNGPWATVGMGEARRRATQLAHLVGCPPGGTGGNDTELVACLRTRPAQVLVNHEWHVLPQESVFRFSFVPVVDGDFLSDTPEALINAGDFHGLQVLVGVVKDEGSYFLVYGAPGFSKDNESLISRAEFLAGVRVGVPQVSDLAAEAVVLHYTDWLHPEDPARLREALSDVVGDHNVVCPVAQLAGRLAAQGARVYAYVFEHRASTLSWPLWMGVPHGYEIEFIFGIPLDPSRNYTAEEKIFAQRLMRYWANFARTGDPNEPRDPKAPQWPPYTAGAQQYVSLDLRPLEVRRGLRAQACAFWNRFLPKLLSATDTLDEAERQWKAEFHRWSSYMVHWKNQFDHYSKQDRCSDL
Sequence of Glycogen synthase kinase-3 beta (P49841 whole entry): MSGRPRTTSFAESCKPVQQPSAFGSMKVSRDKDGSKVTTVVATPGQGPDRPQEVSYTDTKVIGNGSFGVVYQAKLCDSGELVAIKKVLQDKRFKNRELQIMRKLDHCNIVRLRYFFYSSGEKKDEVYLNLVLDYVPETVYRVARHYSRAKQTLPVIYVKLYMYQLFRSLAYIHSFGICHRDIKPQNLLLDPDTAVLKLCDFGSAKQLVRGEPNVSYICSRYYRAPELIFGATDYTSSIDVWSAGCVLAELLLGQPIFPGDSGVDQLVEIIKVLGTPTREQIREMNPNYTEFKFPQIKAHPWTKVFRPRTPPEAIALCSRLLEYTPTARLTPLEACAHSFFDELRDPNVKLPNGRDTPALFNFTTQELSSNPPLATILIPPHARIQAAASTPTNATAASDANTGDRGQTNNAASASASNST
Sequence of Cholinesterase (Equus caballus, UniProt P81908) (P81908 whole entry): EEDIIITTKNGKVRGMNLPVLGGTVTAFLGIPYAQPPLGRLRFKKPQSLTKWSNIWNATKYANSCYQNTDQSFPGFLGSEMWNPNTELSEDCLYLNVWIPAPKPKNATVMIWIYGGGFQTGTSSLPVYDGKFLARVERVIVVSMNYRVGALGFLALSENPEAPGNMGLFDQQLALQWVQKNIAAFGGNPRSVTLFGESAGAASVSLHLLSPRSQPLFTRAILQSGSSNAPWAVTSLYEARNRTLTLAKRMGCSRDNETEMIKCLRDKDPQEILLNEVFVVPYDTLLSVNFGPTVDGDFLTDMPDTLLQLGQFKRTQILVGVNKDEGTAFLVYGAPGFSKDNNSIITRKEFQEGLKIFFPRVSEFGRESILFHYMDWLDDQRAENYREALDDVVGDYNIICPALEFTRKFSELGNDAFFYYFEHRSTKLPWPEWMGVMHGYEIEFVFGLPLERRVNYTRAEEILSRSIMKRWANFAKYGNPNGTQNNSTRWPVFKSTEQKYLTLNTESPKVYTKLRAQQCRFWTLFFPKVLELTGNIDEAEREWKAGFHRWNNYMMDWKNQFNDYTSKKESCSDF

With CN1CC(=O)N2[C@H](c3ccc4c(c3)OCO4)c3[nH]c4ccccc4c3C[C@@H]2C1=O as the compound, how does the Papp at 18 h [1] read?
Its Papp at 18 h is 2.16 ×10⁻⁶ cm/s.

Which IC50 (Cholinesterase [2]) does the source give for O=C(/C=C/c1ccc(Cl)cc1)c1ccc(Cl)s1 here?
Its IC50 is 19600 nM.

And the IC50 (Acetylcholinesterase [3])?
Its IC50 is 14800 nM.

What about the IC50 [4] of the same compound?
The IC50 was 1600 nM.

What about the IC50 [5] of the same compound?
Its IC50 is 790 nM.

Which IC50 (Acetylcholinesterase [6]) does the source give for O=C1[C@@H]2Cc3c([nH]c4ccccc34)[C@@H](c3ccc4c(c3)OCO4)N2C(=O)CN1CCC1CCN(Cc2ccccc2)CC1 here?
The IC50 was 30 nM.

Which results are given for COc1ccc(/C=N/NC(=O)c2ccc(Cl)nc2)cc1OC?
IC50 (Acetylcholinesterase [7]): 30 nM; IC50 (Beta-secretase 1 [8]): 400 nM

Which IC50 (Acetylcholinesterase [9]) does the source give for COc1ccc2c(c1)C/C(=C/c1ccccc1-c1ccccc1)C2=O here?
The IC50 was 29.8 nM.

And the IC50 (Beta-secretase 1 [10])?
Its IC50 is 125 nM.

For O=C(/C=C/c1ccccc1)c1ccc(N2CCOCC2)cc1, which IC50 (Cholinesterase [2]) is on record?
Its IC50 is over 40000 nM.

What about the IC50 [4] of the same compound?
Its IC50 is over 40000 nM.

For Cn1c(NCCCCCCCNc2c3c(nc4cc(Cl)ccc24)CCCC3)nc(-c2ccncc2F)cc1=O, which IC50 (Acetylcholinesterase [6]) is on record?
The IC50 was 51.1 nM.

Which IC50 (Acetylcholinesterase [6]) does the source give for COc1ccc([C@@H]2c3[nH]c4ccccc4c3C[C@H]3C(=O)N(CCC4CCN(Cc5ccccc5)CC4)CC(=O)N23)cc1 here?
The IC50 was 10 nM.

Which results are given for COc1ccccc1NC(=O)C1CCN(Cc2ccccc2)CC1?
IC50 (Acetylcholinesterase [11]): 157 nM; IC50 (Beta-secretase 1 [12]): 277 nM

With COc1ccc(/C=C2\Oc3cc(OCCN4CCCC4)ccc3C2=O)c(OC)c1OC as the compound, how does the IC50 (Acetylcholinesterase [13]) read?
The IC50 was 1560 nM.

What about the IC50 [5] of the same compound?
The IC50 was 340 nM.

Which results are given for COc1ccc(-c2ccccc2/C=C2/Cc3cc(OC)ccc3C2=O)cc1?
IC50 (Acetylcholinesterase [9]): 21.2 nM; IC50 (Beta-secretase 1 [10]): 99.4 nM

For CN(Cc1ccccc1)Cc1ccc(/C=C2/Cc3ccc(OCCCCCN4CCN(C(c5ccc(F)cc5)c5ccc(F)cc5)CC4)cc3C2=O)cc1, which IC50 (Acetylcholinesterase [9]) is on record?
Its IC50 is 44.1 nM.

What about the IC50 (Beta-secretase 1 [10]) of the same compound?
Its IC50 is 341 nM.

For Clc1ccc(-c2nnc(CNC3CCN(Cc4ccccc4)CC3)o2)c(Cl)c1, which IC50 (Beta-secretase 1 [8]) is on record?
The IC50 was 250 nM.

And the IC50 (Cholinesterase [14])?
The IC50 was 210 nM.

For O=C(/C=C/c1ccc(F)cc1)c1ccc(Br)s1, which IC50 (Cholinesterase [2]) is on record?
Its IC50 is 16300 nM.

What about the IC50 (Acetylcholinesterase [3]) of the same compound?
Its IC50 is 18200 nM.

What about the IC50 [4] of the same compound?
Its IC50 is 4060 nM.

What about the IC50 [5] of the same compound?
The IC50 was 1710 nM.

Which IC50 (Acetylcholinesterase [3]) does the source give for CCO/C(C)=N/Oc1ccc(/C=C/C(=O)c2ccc(C)cc2)cc1 here?
Its IC50 is 850 nM.

What about the IC50 [4] of the same compound?
Its IC50 is 15000 nM.

And the IC50 [5]?
Its IC50 is 30 nM.

For Cc1ccc(/C=C/C(=O)c2ccccc2N)cn1, which IC50 (Acetylcholinesterase [15]) is on record?
The IC50 was 2920 nM.

Which results are given for CCN(CCCCOc1ccc(C(=O)/C=C/c2ccc(N(C)C)cc2)c(O)c1)Cc1ccccc1N(C)C?
IC50 (Cholinesterase [2]): 130 nM; IC50 (Acetylcholinesterase [3]): 130 nM

With COc1ccc2c(c1)C/C(=C/c1ccccc1-c1ccc3ccccc3c1)C2=O as the compound, how does the IC50 (Beta-secretase 1 [12]) read?
Its IC50 is 101 nM.

Which IC50 (Acetylcholinesterase [16]) does the source give for O=C(/C=C/c1ccccc1)c1ccccc1 [CHALCONE] here?
Its IC50 is 28200 nM.

With COc1ccc([C@@H]2c3[nH]c4ccccc4c3C[C@@H]3C(=O)N(CCC4CCN(Cc5ccccc5)CC4)CC(=O)N23)cc1 as the compound, how does the inhibition (Acetylcholinesterase [17]) read?
The inhibition was 55.4%.

For COc1nc(-c2ccnc(NC(=O)C3CC3)c2)sc1C(=O)NCNc1c2c(nc3ccccc13)CCCC2, which IC50 (Acetylcholinesterase [18]) is on record?
Its IC50 is 6.3 nM.

And the IC50 [19]?
The IC50 was 68 nM.

For COc1cc(/C=N/NC(=O)c2ccc(Cl)nc2)ccc1O, which IC50 (Acetylcholinesterase [7]) is on record?
Its IC50 is 30 nM.

What about the IC50 (Beta-secretase 1 [8]) of the same compound?
Its IC50 is 600 nM.

With O=C(/C=C/c1ccc(OCc2ccccc2)cc1)c1ccc2c(c1)OCO2 as the compound, how does the IC50 (Acetylcholinesterase [3]) read?
Its IC50 is 5400 nM.

What about the IC50 [4] of the same compound?
The IC50 was 8610 nM.

And the IC50 [5]?
Its IC50 is 1540 nM.

For CN1CCN(c2ccc(C(=O)/C=C/c3cc(Br)ccc3F)cc2)CC1, which IC50 (Cholinesterase [2]) is on record?
Its IC50 is 9440 nM.

With COc1ccc(/C=C/C(=O)c2ccccc2O)cc1OC as the compound, how does the IC50 [20] read?
The IC50 was 1410 nM.

What about the IC50 (Acetylcholinesterase [16]) of the same compound?
The IC50 was 28000 nM.

Which IC50 (Acetylcholinesterase [6]) does the source give for COc1ccc2c3c1O[C@H]1C[C@@H](O)C=C[C@@]31CCN(CCCCCCNC13CC4CC(C)(CC(C)(C4)C1)C3)C2 [MEMAGAL] here?
The IC50 was 1.16 nM.

Which IC50 (Acetylcholinesterase [21]) does the source give for O=C1/C(=C/c2ccc(O)cc2)Oc2cc(O)ccc21 here?
Its IC50 is 202000 nM.

For CCO/C(C)=N/Oc1ccc(/C=C/C(=O)c2ccc(F)cc2)cc1, which IC50 (Acetylcholinesterase [3]) is on record?
Its IC50 is 670 nM.

What about the IC50 [4] of the same compound?
Its IC50 is 17400 nM.

And the IC50 [5]?
Its IC50 is 20 nM.
